Laboratory results published in PubChem BioAssay (NCI).
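96-well plates; 48 h exposure; 5 concentrations. Endpoints by linear interpolation between flanking doses. Not reached: highest tested concentration assigned. TGI denotes the concentration required for complete inhibition of growth.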

Legend:
Assay in all cases: NCI tumour cell line growth inhibition, 48 h
HL-60(TB) leukemia = system: HL-60(TB) leukemia
U251 CNS = system: U251 CNS
MDA-MB-231 breast = system: MDA-MB-231 breast
PC-3 prostate = system: PC-3 prostate
SK-MEL-28 melanoma = system: SK-MEL-28 melanoma
A549 NSCLC = system: A549 NSCLC
KM12 colon = system: KM12 colon
786-0 renal = system: 786-0 renal
NCI-H460 lung = system: NCI-H460 lung
SF-295 CNS = system: SF-295 CNS
SF-268 CNS = system: SF-268 CNS
SK-MEL-2 melanoma = system: SK-MEL-2 melanoma
IGROV1 ovarian = system: IGROV1 ovarian
A498 renal = system: A498 renal
HOP-92 NSCLC = system: HOP-92 NSCLC
CCRF-CEM leukemia = system: CCRF-CEM leukemia
SW-620 colon = system: SW-620 colon
OVCAR-4 ovarian = system: OVCAR-4 ovarian
SK-OV-3 ovarian = system: SK-OV-3 ovarian
MDA-N = system: MDA-N

Structure (SMILES) | TGI (HL-60(TB) leukemia) [µM] | TGI (U251 CNS) [µM] | TGI (MDA-MB-231 breast) [µM] | TGI (PC-3 prostate) [µM] | TGI (SK-MEL-28 melanoma) [µM] | TGI (A549 NSCLC) [µM] | TGI (KM12 colon) [µM] | TGI (786-0 renal) [µM] | TGI (NCI-H460 lung) [µM] | TGI (SF-295 CNS) [µM] | TGI (SF-268 CNS) [µM] | TGI (SK-MEL-2 melanoma) [µM] | TGI (IGROV1 ovarian) [µM] | TGI (A498 renal) [µM] | TGI (HOP-92 NSCLC) [µM] | TGI (CCRF-CEM leukemia) [µM] | TGI (SW-620 colon) [µM] | TGI (OVCAR-4 ovarian) [µM] | TGI (SK-OV-3 ovarian) [µM] | TGI (MDA-N) [µM]
Cc1cc2nc(-c3c(F)cccc3F)n(Cc3c(F)cccc3F)c2cc1C | 42.7 | 24.1 | 31 | 40.6 | 42.2 | 28.1 | 28.6 | 31.8 | 49.7 | 27.9 | 42.7 | 29.6 | 28.4 | 39.9 | 30 | 60.9 | 35 | 40.1 | 42.2 | 38.4
Cc1ccc(S(=O)(=O)NNC2(NS(=O)(=O)c3ccc(Cl)cc3)C(Cl)=C(Cl)C(=O)c3ccccc32)cc1 (stereo not given) | 37.4 | 57.3 | 44.9 | 33.5 | 60.7 | 34.2 | 35.2 | 28.2 | 38.1 | 51.4 | 29.6 | 50.6 | 34.3 | 36.7 | 41.6 | 63 | 76 | 30.1 | 32.2 | 32.2
O=C(/C=C/c1ccccc1)CSc1nc2ccc(I)cc2c(=O)n1Cc1ccccc1 | 57.2 | > 100 | > 100 | > 96.4 | > 100 | > 100 | > 100 | 35.9 | > 100 | > 70.6 | 51.9 | 99 | > 68 | 46.4 | 55.2 | > 59.2 | > 100 | > 100 | > 100 | > 100
CC(=O)N(CN1C(=O)CCC1C(=O)O)c1cccc(O)c1 (stereo not given) | > 100 | > 100 | > 100 | > 100 | > 100 | > 100 | > 100 | > 100 | > 100 | > 100 | > 100 | > 100 | > 100 | > 100 | > 100 | > 100 | > 100 | > 100 | > 100 | > 100
COc1cc(Oc2nc3c(N)cc(C(F)(F)F)cc3nc2-c2ccccc2)cc(OC)c1OC | > 100 | > 45.7 | > 100 | 29.5 | > 68.7 | > 100 | > 100 | > 41.1 | > 100 | > 29 | > 100 | 21 | > 24.3 | 81.5 | > 65.4 | > 31.6 | > 26.2 | > 100 | > 66.5 | 3.08
O=C1/C(=C/c2ccccc2)CCC/C1=C\c1ccc(O)c(CN2CCCCC2)c1 | > 100 | 11 | 6.28 | 13.8 | 17.5 | 36.4 | 4.98 | 3.4 | 16.5 | 13 | 17 | 29.2 | 11.2 | 12.5 | 15.4 | > 100 | 5.94 | 13.8 | 22.2 | 8.11
Nc1nc(N)c2[nH]cnc2n1 (tested in a mixture with another compound) | > 100 | > 100 | > 100 | 94.6 | > 100 | 47.4 | > 100 | > 100 | 63.4 | > 100 | > 100 | 77.5 | > 100 | 45.1 | > 100 | > 100 | > 100 | > 100 | > 100 | > 100
CN(CCCN(C)CCc1ccc(Cl)c(Cl)c1)CCCN1CCCC1 | 4.12 | 4.62 | 3.61 | 15.1 | 3.18 | 11.2 | 7.99 | 2.76 | 5.98 | 4.76 | 7.02 | 3.48 | 8.65 | 3.37 | 11.5 | 2.12 | 7.96 | 20.5 | 23.1 | 2.65
c1ccc2cc(CNCCOCCOCCNCc3ccc4ccccc4c3)ccc2c1 | 4.07 | 4.07 | 3.11 | 5.3 | 4.35 | 3.46 | 3.16 | 2.97 | 3.24 | 3.11 | 4.43 | 3.65 | 3.22 | 3.73 | 3.14 | 4.46 | 4.62 | 5.78 | 8.62 | 3.23
COc1ccc(C2(O)c3ccccc3C(=O)N(C)C2(O)c2ccc(OC)cc2)cc1 (stereo not given) | > 100 | > 100 | > 100 | > 100 | > 100 | > 100 | 89.4 | > 100 | > 100 | > 100 | > 100 | > 100 | > 100 | > 100 | > 100 | > 100 | > 100 | > 100 | > 100 | 38.1
COC(=O)CC(=O)Nc1sccc1S(=O)(=O)c1ccccc1 | > 100 | > 100 | > 100 | > 100 | > 100 | > 100 | > 100 | > 100 | > 100 | > 100 | > 100 | > 100 | > 100 | > 100 | > 100 | > 100 | > 100 | > 100 | > 100 | > 100
CCOP(=O)(OCC)C1=C(c2ccccc2)OC(N)=C(C#N)C1c1ccc(Cl)cc1 (stereo not given) | > 100 | > 100 | > 100 | > 100 | > 100 | > 100 | > 100 | > 100 | > 100 | > 100 | > 100 | > 100 | > 100 | > 100 | > 100 | > 100 | > 100 | > 100 | > 100 | > 100
CCN(CC)C(=S)N=Nc1c(O)[nH]c2ccccc12 | 3.7 | 13 | 8.02 | 13.9 | > 100 | 11.9 | 10.5 | 11.4 | 3.08 | 11.5 | > 100 | 23.8 | 2.42 | 3.64 | 8.52 | 5.75 | 19.7 | 11.9 | 12.6 | 16.5
Oc1ccc(/C=C/c2ccc3cccc(O)c3n2)cc1O | > 100 | 20.6 | 62.8 | 67.6 | 89.5 | 27.8 | 33 | 50.9 | 13.9 | 76.9 | > 100 | 36 | > 100 | 30 | > 100 | > 100 | > 100 | > 100 | > 100 | 44.7
COc1ccc(C(=O)N(C(=S)OCCOc2ccccc2)c2ccccc2)cc1 | 51.9 | > 100 | > 100 | > 100 | > 100 | > 100 | > 100 | > 100 | > 100 | > 100 | > 100 | 68.5 | > 100 | 73.9 | 70.4 | 66.3 | > 100 | > 100 | > 100 | > 100
C=C1C(=O)O[C@H]2[C@H]3O[C@@H](C[C@@H]12)[C@@]1(C)CC[C@H](O1)C(C)=CCC[C@H]3C | 1.03 | 2.97 | 3.14 | 2.97 | 3.36 | 6.96 | 3.76 | 2.67 | 7.26 | 17.9 | 2.95 | 4.11 | 3.83 | 3.15 | 3.45 | 1.98 | 7.41 | 3.27 | 16.2 | 3
O=C1Nc2ccccc2/C1=C/c1c(Cl)[nH]c2ccc(O)cc12 | 5.31 | 14.5 | 6.77 | 16.3 | 22.5 | > 37.8 | 15.6 | 25.9 | 13.9 | > 25.5 | > 43.7 | 12.7 | 13.5 | 11.3 | 45 | 10.1 | 20.7 | 38.5 | 30.4 | 1.6
Cc1ccc(S(=O)(=O)n2c3c(c4ccccc42)CCN2CCC(Br)C[C@@H]32)cc1 (stereo not given in full) | 17.4 | 24.9 | 31.3 | 26.3 | 24.5 | 31.4 | 21.1 | 30.2 | 30.1 | 23.1 | 30.8 | 31.7 | 22.3 | 41 | 32.4 | 35.2 | 26.1 | 27 | 31.9 | 15.8
COc1cccc(C2SCC(=O)N2c2ccc(-n3c(-c4ccccc4)nc4ccccc4c3=O)cc2)c1OC (stereo not given) | > 100 | > 100 | > 100 | > 100 | > 100 | > 100 | > 100 | > 100 | > 100 | > 100 | > 100 | > 100 | > 100 | > 100 | > 100 | > 100 | > 100 | > 100 | > 100 | > 100
